Data as given in ChEMBL document CHEMBL5126517, “Structure-Activity Relationship in the Leucettine Family of Kinase Inhibitors” (J Med Chem, 2022).
pIC50: −log10 of the molar value.

system: not listed separately; test: Neurotoxicity against mouse HT-22 cells assessed as cell survival at 20 uM treated for 24 hrs by MTS assay; type: toxicity, cell-based; conditions: ht-22, 24 h

Row | SMILES | Activity
1 | O=C1NC(NC2CCNCC2)=N/C1=C\c1ccc2c(c1)OCO2 | Non-Toxic
2 | COc1ccc(NC2=N/C(=C\c3ccc4c(c3)OCO4)C(=O)N2)cc1 | Non-Toxic
3 | O=C1NC(N2CCCCC2)=N/C1=C\c1ccc2c(c1)OCO2 | Non-Toxic
4 | O=C1OC(Nc2ccccc2)=N/C1=C\c1ccc2c(c1)OCO2 | Non-Toxic
5 | CCSC1NC(=O)/C(=C/c2ccc3c(c2)OCO3)N1C (stereo not drawn) | Non-Toxic
6 | CCCSC1=N/C(=C\c2ccc3c(c2)OCO3)C(=O)N1C | Non-Toxic
7 | Cn1cc(Cc2ccc3c(c2)OCO3)nc1N | Non-Toxic

biological target: Dual specificity protein kinase CLK1 (Mus musculus, UniProt P22518); test: Inhibition of GST-fused mouse recombinant CLK1 expressed in Escherichia coli using GRSRSRSRSRSR peptide as substrate incubated for 30 mins in presence of ATP by scintillation counting method; conditions: not given
Sequence (P22518 whole entry, the tested form may be a part): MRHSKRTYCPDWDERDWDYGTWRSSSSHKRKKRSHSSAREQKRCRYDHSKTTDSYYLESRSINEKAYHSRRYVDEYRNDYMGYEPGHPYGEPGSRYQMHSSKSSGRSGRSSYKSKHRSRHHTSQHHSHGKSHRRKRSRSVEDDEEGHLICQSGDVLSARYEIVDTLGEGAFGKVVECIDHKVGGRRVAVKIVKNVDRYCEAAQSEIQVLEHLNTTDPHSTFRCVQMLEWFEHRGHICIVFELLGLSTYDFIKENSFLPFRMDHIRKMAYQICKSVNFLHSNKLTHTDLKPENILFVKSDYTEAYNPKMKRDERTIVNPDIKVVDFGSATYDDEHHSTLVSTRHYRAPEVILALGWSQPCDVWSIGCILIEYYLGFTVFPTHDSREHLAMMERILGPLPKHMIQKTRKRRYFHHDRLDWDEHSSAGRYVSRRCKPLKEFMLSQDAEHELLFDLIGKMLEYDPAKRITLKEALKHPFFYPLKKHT

Row | SMILES | pIC50
8 | O=C1NC(NC2CCNCC2)=N/C1=C\c1ccc2c(c1)OCO2 | 6.66
9 | COc1ccc(NC2=N/C(=C\c3ccc4c(c3)OCO4)C(=O)N2)cc1 | 6.85
10 | O=C1NC(N2CCCCC2)=N/C1=C\c1ccc2c(c1)OCO2 | 6.62
11 | CCCSC1=N/C(=C\c2ccc3c(c2)OCO3)C(=O)N1C | 7.19
12 | Cn1cc(Cc2ccc3c(c2)OCO3)nc1N | 5.49

biological target: T1, Dual specificity tyrosine-phosphorylation-regulated kinase 2 (Homo sapiens, UniProt Q92630); test: Inhibition of GST-fused human recombinant DYRK2 expressed in Escherichia coli using GRSRSRSRSRSR peptide as substrate incubated for 30 mins in presence of ATP by scintillation counting method; conditions: not given
T1 sequence (Q92630 whole entry): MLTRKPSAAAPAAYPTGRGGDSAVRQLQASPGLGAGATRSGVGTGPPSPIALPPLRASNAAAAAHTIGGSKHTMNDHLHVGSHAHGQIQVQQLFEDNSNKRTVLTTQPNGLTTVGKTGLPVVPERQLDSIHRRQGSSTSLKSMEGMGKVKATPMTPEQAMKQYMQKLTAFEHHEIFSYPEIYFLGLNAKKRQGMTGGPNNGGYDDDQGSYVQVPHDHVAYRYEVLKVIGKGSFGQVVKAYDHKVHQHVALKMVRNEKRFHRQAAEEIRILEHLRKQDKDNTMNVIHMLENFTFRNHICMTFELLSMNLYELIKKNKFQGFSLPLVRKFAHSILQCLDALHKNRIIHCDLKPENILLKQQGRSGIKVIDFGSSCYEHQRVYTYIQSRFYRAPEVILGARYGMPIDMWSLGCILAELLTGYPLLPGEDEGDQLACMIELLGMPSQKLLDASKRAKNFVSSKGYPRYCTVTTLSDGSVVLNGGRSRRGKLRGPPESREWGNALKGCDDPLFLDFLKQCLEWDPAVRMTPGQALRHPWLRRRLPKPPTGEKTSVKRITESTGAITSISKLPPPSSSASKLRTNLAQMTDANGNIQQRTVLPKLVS

Row | SMILES | pIC50
13 | O=C1NC(NC2CCNCC2)=N/C1=C\c1ccc2c(c1)OCO2 | 6.60
14 | COc1ccc(NC2=N/C(=C\c3ccc4c(c3)OCO4)C(=O)N2)cc1 | 6.89
15 | O=C1NC(N2CCCCC2)=N/C1=C\c1ccc2c(c1)OCO2 | 6.66
16 | CCCSC1=N/C(=C\c2ccc3c(c2)OCO3)C(=O)N1C | 6.48
17 | Cn1cc(Cc2ccc3c(c2)OCO3)nc1N | < 5.00

system: HT-22; test: Modulation of CLK1 pre-mRNA splicing in mouse HT-22 cells assessed as inclusion of CLK1 exon 4 by measuring change in threshold cycle at 10 uM measured after 4 hrs by real time PCR analysis; type: cell-based; conditions: filed as modulator

Row | SMILES | deltaCT
18 | O=C1NC(NC2CCNCC2)=N/C1=C\c1ccc2c(c1)OCO2 | 0.36
19 | COc1ccc(NC2=N/C(=C\c3ccc4c(c3)OCO4)C(=O)N2)cc1 | 0.5
20 | O=C1NC(N2CCCCC2)=N/C1=C\c1ccc2c(c1)OCO2 | 0.68
21 | O=C1OC(Nc2ccccc2)=N/C1=C\c1ccc2c(c1)OCO2 | -0.18
22 | CCSC1NC(=O)/C(=C/c2ccc3c(c2)OCO3)N1C (stereo not drawn) | 0.23
23 | CCCSC1=N/C(=C\c2ccc3c(c2)OCO3)C(=O)N1C | -1.36
24 | Cn1cc(Cc2ccc3c(c2)OCO3)nc1N | 0.38

biological target: Dual specificity protein kinase CLK3 (Mus musculus, UniProt O35492); test: Inhibition of GST-fused mouse recombinant CLK3 expressed in Escherichia coli using GRSRSRSRSRSR peptide as substrate incubated for 30 mins in presence of ATP by scintillation counting method; conditions: not given
Sequence (O35492 whole entry, the tested form may be a part): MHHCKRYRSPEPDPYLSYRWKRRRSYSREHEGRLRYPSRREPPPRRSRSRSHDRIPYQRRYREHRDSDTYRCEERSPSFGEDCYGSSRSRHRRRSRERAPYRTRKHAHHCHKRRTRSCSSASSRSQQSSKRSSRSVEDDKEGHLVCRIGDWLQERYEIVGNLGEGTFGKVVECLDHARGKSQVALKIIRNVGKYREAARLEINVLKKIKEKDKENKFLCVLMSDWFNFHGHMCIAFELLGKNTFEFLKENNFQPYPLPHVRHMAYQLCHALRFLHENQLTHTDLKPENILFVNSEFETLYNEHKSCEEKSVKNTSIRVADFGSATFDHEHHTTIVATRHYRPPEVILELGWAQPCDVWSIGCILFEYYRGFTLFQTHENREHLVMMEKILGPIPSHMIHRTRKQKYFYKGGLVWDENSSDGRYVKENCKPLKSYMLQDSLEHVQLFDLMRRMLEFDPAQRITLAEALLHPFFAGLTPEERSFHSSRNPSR

Row | SMILES | pIC50
25 | O=C1NC(NC2CCNCC2)=N/C1=C\c1ccc2c(c1)OCO2 | 5.28
26 | COc1ccc(NC2=N/C(=C\c3ccc4c(c3)OCO4)C(=O)N2)cc1 | < 5.00
27 | O=C1NC(N2CCCCC2)=N/C1=C\c1ccc2c(c1)OCO2 | 5.35
28 | CCCSC1=N/C(=C\c2ccc3c(c2)OCO3)C(=O)N1C | < 5.00
29 | Cn1cc(Cc2ccc3c(c2)OCO3)nc1N | < 5.00

biological target: Serine/threonine-protein kinase pim-1 (Homo sapiens, UniProt P11309); test: Inhibition of human recombinant Pim1 expressed in Escherichia coli using histone H1 as substrate incubated for 30 mins in presence of ATP by scintillation counting method; conditions: not given
Sequence (P11309 whole entry): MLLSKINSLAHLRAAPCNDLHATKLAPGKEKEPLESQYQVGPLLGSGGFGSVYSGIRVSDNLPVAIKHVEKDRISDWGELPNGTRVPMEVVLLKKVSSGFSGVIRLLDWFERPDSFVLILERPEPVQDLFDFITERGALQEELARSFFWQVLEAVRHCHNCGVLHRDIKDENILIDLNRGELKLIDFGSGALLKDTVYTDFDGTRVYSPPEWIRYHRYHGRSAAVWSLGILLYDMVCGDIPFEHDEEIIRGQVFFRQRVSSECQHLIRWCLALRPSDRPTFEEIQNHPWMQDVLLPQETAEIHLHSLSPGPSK

Row | SMILES | pIC50
30 | O=C1NC(NC2CCNCC2)=N/C1=C\c1ccc2c(c1)OCO2 | 5.19
31 | O=C1NC(N2CCCCC2)=N/C1=C\c1ccc2c(c1)OCO2 | 6.06
32 | CCCSC1=N/C(=C\c2ccc3c(c2)OCO3)C(=O)N1C | 5.70

biological target: Dual specificity tyrosine-phosphorylation-regulated kinase 1B (Homo sapiens, UniProt Q9Y463); conditions: not given
Sequence (Q9Y463 whole entry): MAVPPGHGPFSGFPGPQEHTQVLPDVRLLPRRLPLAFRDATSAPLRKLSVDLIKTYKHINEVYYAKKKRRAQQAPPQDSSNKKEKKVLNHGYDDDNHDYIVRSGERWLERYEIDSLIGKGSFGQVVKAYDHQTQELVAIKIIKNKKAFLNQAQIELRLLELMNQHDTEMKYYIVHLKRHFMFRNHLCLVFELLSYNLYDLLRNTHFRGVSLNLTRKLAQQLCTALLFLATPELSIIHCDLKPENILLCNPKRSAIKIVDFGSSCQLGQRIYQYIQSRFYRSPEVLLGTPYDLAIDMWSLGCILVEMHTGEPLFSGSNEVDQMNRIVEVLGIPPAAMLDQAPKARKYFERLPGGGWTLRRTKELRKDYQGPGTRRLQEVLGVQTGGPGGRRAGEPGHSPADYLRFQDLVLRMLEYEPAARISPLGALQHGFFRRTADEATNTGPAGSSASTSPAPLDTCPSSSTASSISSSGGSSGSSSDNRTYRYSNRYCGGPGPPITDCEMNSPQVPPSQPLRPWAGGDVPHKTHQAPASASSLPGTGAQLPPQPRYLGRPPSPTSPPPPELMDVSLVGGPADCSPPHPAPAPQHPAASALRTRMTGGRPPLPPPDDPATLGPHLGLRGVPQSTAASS

Row | SMILES | pIC50
33 | O=C1NC(NC2CCNCC2)=N/C1=C\c1ccc2c(c1)OCO2 | 6.19
34 | COc1ccc(NC2=N/C(=C\c3ccc4c(c3)OCO4)C(=O)N2)cc1 | 6.57
35 | O=C1NC(N2CCCCC2)=N/C1=C\c1ccc2c(c1)OCO2 | 6.36
36 | CCCSC1=N/C(=C\c2ccc3c(c2)OCO3)C(=O)N1C | 6.21

biological target: Dual specificity tyrosine-phosphorylation-regulated kinase 1A (Homo sapiens, UniProt Q13627); test: Inhibition of GST-fused human recombinant DYRK1A expressed in Escherichia coli using GRSRSRSRSRSR peptide as substrate incubated for 30 mins in presence of ATP by scintillation counting method; conditions: not given

Row | SMILES | pIC50
37 | O=C1NC(NC2CCNCC2)=N/C1=C\c1ccc2c(c1)OCO2 | 6.47
38 | COc1ccc(NC2=N/C(=C\c3ccc4c(c3)OCO4)C(=O)N2)cc1 | 6.96
39 | O=C1NC(N2CCCCC2)=N/C1=C\c1ccc2c(c1)OCO2 | 6.89
40 | CCCSC1=N/C(=C\c2ccc3c(c2)OCO3)C(=O)N1C | 6.47
41 | Cn1cc(Cc2ccc3c(c2)OCO3)nc1N | < 5.00

biological target: Dual specificity protein kinase CLK2 (Mus musculus, UniProt O35491); test: Inhibition of mouse recombinant GST-fused CLK2 expressed in Escherichia coli using GRSRSRSRSRSR peptide as substrate incubated for 30 mins in presence of ATP by scintillation counting method; conditions: not given
Sequence (O35491 whole entry, the tested form may be a part): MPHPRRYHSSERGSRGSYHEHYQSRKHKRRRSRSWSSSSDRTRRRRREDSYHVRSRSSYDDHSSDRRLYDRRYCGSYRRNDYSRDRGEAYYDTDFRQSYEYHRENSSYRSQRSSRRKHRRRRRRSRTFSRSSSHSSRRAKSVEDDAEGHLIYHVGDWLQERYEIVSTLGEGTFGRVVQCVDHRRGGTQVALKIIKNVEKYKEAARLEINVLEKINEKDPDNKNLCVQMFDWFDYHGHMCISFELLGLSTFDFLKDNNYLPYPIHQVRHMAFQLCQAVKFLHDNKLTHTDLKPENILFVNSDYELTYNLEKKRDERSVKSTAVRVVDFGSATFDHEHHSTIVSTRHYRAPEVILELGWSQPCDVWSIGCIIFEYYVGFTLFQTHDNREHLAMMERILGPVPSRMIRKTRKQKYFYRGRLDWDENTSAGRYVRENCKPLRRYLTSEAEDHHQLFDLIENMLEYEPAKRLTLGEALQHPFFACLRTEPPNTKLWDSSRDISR

Row | SMILES | pIC50
42 | O=C1NC(NC2CCNCC2)=N/C1=C\c1ccc2c(c1)OCO2 | 6.05
43 | COc1ccc(NC2=N/C(=C\c3ccc4c(c3)OCO4)C(=O)N2)cc1 | 5.12
44 | O=C1NC(N2CCCCC2)=N/C1=C\c1ccc2c(c1)OCO2 | 5.89
45 | CCCSC1=N/C(=C\c2ccc3c(c2)OCO3)C(=O)N1C | 6.49
46 | Cn1cc(Cc2ccc3c(c2)OCO3)nc1N | < 5.00

biological target: Dual specificity protein kinase CLK4 (Mus musculus, UniProt O35493); test: Inhibition of GST-fused mouse recombinant CLK4 expressed in Escherichia coli using GRSRSRSRSRSR peptide as substrate incubated for 30 mins in presence of ATP by scintillation counting method; conditions: not given
Sequence (O35493 whole entry, the tested form may be a part): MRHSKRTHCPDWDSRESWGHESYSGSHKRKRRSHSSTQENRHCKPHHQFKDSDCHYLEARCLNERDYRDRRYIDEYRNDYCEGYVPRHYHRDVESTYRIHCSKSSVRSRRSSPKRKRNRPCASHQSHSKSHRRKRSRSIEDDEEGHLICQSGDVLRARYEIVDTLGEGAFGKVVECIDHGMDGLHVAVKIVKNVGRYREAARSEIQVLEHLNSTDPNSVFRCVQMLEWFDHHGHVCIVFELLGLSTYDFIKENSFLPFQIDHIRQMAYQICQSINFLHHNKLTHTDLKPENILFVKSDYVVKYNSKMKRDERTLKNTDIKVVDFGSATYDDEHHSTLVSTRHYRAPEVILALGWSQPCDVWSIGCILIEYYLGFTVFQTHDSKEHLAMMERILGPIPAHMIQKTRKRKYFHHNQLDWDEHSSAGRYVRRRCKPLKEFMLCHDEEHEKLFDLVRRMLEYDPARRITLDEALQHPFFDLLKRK

Row | SMILES | pIC50
47 | O=C1NC(NC2CCNCC2)=N/C1=C\c1ccc2c(c1)OCO2 | 6.59
48 | COc1ccc(NC2=N/C(=C\c3ccc4c(c3)OCO4)C(=O)N2)cc1 | 6.89
49 | O=C1NC(N2CCCCC2)=N/C1=C\c1ccc2c(c1)OCO2 | 6.60
50 | CCCSC1=N/C(=C\c2ccc3c(c2)OCO3)C(=O)N1C | 7.66
51 | Cn1cc(Cc2ccc3c(c2)OCO3)nc1N | 5.52

biological target: Casein kinase 2 (Homo sapiens, UniProt P67870+P68400+P19784+Q8NEV1); test: Inhibition of human recombinant CK2 using RRRDDDSDDD peptide as substrate incubated for 30 mins in presence of ATP by scintillation counting method; type: protein assay; conditions: not given

Row | SMILES | IC50
52 | O=C1NC(NC2CCNCC2)=N/C1=C\c1ccc2c(c1)OCO2 | > 10 µM
53 | COc1ccc(NC2=N/C(=C\c3ccc4c(c3)OCO4)C(=O)N2)cc1 | > 10 µM
54 | O=C1NC(N2CCCCC2)=N/C1=C\c1ccc2c(c1)OCO2 | 0.76 µM
55 | CCCSC1=N/C(=C\c2ccc3c(c2)OCO3)C(=O)N1C | > 10 µM

biological target: Cannabinoid receptor 1 (Homo sapiens, UniProt P21554); test: Antagonist activity at CP-55940-activated CB1 receptor (unknown origin) at 10 uM by beta-arrestin assay relative to control; type: functional; design: scale not given: the % may be the effect or the level left; conditions: not given
Sequence (P21554 whole entry): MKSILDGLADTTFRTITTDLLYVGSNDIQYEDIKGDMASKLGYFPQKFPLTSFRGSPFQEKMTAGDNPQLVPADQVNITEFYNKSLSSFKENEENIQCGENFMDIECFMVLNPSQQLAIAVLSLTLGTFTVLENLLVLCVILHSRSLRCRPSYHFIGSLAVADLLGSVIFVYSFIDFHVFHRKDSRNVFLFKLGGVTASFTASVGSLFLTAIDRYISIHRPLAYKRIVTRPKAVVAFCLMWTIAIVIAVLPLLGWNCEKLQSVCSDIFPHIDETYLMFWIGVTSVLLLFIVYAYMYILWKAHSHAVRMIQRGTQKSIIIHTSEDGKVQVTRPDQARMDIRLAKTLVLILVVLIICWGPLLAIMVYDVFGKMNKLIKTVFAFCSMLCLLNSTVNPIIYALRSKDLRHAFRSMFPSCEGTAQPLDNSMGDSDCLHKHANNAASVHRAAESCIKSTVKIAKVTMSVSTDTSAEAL

Row | SMILES | Activity
56 | O=C1NC(NC2CCNCC2)=N/C1=C\c1ccc2c(c1)OCO2 | -43.5%
57 | O=C1NC(N2CCCCC2)=N/C1=C\c1ccc2c(c1)OCO2 | -58.4%
58 | O=C1OC(Nc2ccccc2)=N/C1=C\c1ccc2c(c1)OCO2 | -37.5%
59 | CCSC1NC(=O)/C(=C/c2ccc3c(c2)OCO3)N1C (stereo not drawn) | -10.7%
60 | CCCSC1=N/C(=C\c2ccc3c(c2)OCO3)C(=O)N1C | 37.2%
61 | Cn1cc(Cc2ccc3c(c2)OCO3)nc1N | 8.9%

same assay, conditions: filed as antagonist

Row | SMILES | Activity
62 | COc1ccc(NC2=N/C(=C\c3ccc4c(c3)OCO4)C(=O)N2)cc1 | 50.5%

biological target: T2, Dual specificity tyrosine-phosphorylation-regulated kinase 3 (Homo sapiens, UniProt O43781); test: Inhibition of GST-fused human recombinant DYRK3 expressed in Escherichia coli using GRSRSRSRSRSR peptide as substrate incubated for 30 mins in presence of ATP by scintillation counting method; conditions: not given
T2 sequence (O43781 whole entry): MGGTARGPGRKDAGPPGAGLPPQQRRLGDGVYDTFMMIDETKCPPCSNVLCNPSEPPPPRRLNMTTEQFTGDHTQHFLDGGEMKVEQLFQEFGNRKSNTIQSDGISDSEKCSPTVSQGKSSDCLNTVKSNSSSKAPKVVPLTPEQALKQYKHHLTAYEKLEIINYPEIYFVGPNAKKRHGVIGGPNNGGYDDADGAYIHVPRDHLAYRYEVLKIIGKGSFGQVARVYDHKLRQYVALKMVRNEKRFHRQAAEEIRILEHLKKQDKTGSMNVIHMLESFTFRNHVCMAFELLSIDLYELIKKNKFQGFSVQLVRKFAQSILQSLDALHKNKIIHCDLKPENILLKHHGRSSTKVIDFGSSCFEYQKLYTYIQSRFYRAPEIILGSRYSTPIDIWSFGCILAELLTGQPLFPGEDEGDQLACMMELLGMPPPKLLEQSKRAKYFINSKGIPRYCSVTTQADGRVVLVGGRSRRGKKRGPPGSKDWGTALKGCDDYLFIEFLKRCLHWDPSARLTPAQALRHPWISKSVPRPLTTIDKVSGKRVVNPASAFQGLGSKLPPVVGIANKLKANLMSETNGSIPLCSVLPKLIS

Row | SMILES | pIC50
63 | O=C1NC(NC2CCNCC2)=N/C1=C\c1ccc2c(c1)OCO2 | 6.04
64 | COc1ccc(NC2=N/C(=C\c3ccc4c(c3)OCO4)C(=O)N2)cc1 | 5.22
65 | O=C1NC(N2CCCCC2)=N/C1=C\c1ccc2c(c1)OCO2 | 6.28
66 | CCCSC1=N/C(=C\c2ccc3c(c2)OCO3)C(=O)N1C | 6.21
67 | Cn1cc(Cc2ccc3c(c2)OCO3)nc1N | < 5.00

system: U2OS; test: Induction of PI3K/mTor-dependent autophagy in human U2OS cells assessed as number of LC3 foci per cell at 10 uM measured after 4 hrs; type: cell-based; conditions: filed as activator

Row | SMILES | Activity
68 | O=C1NC(NC2CCNCC2)=N/C1=C\c1ccc2c(c1)OCO2 | 7.4
69 | COc1ccc(NC2=N/C(=C\c3ccc4c(c3)OCO4)C(=O)N2)cc1 | 5.9
70 | O=C1NC(N2CCCCC2)=N/C1=C\c1ccc2c(c1)OCO2 | 6.8
71 | O=C1OC(Nc2ccccc2)=N/C1=C\c1ccc2c(c1)OCO2 | 6.2
72 | CCSC1NC(=O)/C(=C/c2ccc3c(c2)OCO3)N1C (stereo not drawn) | 6.5
73 | CCCSC1=N/C(=C\c2ccc3c(c2)OCO3)C(=O)N1C | 6.2
74 | Cn1cc(Cc2ccc3c(c2)OCO3)nc1N | 5.3

biological target: Glycogen synthase kinase-3 (Sus scrofa, UniProt B2LUN4+I6LNT8); test: Inhibition of porcine brain GSK-3alpha/beta using YRRAAVPPSPSLSRHSSPHQpSEDEEE as substrate incubated for 30 mins in presence of ATP by scintillation counting method; type: tissue-based; conditions: not given

Row | SMILES | IC50
75 | O=C1NC(NC2CCNCC2)=N/C1=C\c1ccc2c(c1)OCO2 | 1.3 µM
76 | COc1ccc(NC2=N/C(=C\c3ccc4c(c3)OCO4)C(=O)N2)cc1 | > 10 µM
77 | O=C1NC(N2CCCCC2)=N/C1=C\c1ccc2c(c1)OCO2 | 2.6 µM
78 | CCCSC1=N/C(=C\c2ccc3c(c2)OCO3)C(=O)N1C | 2 µM
